Data set [1] concerns HCV replicon RNA (GenBank Accession No. AJ242654). The data set can be described thus: HCV Replicon Assay (replicon RNA reduction and/or Fluc reporter signal). The format is cell-based, Hepatitis C virus. The note with it: Hepatitis C virus, 72 h, replicon-containing cells cultured with test compound for up to 3 days. The gist of the method:
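IC50 values mostly reflect the drop in replicon RNA, though Fluc reporter signal may also be used. Compound incubated with cells carrying the bicistronic replicon for as long as 3 days; interferon served as positive control.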

SMILES strings stand for the structures.

From patent US9593108B2, “Compounds and methods for antiviral treatment” (PTC Therapeutics, Inc., priority 2009, dated 2017) come the findings set out here.

For the molecule `CSc1cnc2c(c1)c(C#N)c(-c1ccc(S(=O)(=O)NC3(C(F)(F)F)CC3)cn1)n2C1CCCC1` [Cpd 274, 6-[3-cyano-1-cyclopentyl-5-(methylsulfanyl)-1H-pyrrolo[2,3-b]pyridin-2-yl]-N-[1-(trifluoromethyl)cyclopropyl]pyridine-3-sulfonamide], the melting point is 200 to 203 °C. In data set [1], this molecule registered an IC50 of less than 500 nM.

`C[C@H](NS(=O)(=O)c1ccc(-c2c(C#N)c3cc(O)cnc3n2C2CCC2)nc1)C(F)(F)F` [Cpd 275, 6-(3-cyano-1-cyclobutyl-5-hydroxy-1H-pyrrolo[2,3-b]pyridin-2-yl)-N-[(2S)-1,1,1-trifluoropropan-2-yl]pyridine-3-sulfonamide] showed a melting point of 240 to 242 °C. For the same molecule, the half-inhibitory concentration (IC50) in data set [1] was less than 500 nM.

`CC[C@H](NS(=O)(=O)c1ccc(-c2c(C#N)c3cc(Cl)cnc3n2C2CCC2)nc1)C(F)(F)F` [Cpd 276, 6-(5-chloro-3-cyano-1-cyclobutyl-1H-pyrrolo[2,3-b]pyridin-2-yl)-N-[(2S)-1,1,1-trifluorobutan-2-yl]pyridine-3-sulfonamide] yielded a melting point of 186 to 191 °C. In data set [1], this molecule had a half-maximal inhibitory concentration (IC50) of less than 500 nM.

`COc1cnc2c(c1)c(C#N)c(-c1cc(C)c(S(=O)(=O)N[C@@H](C)C(F)(F)F)cn1)n2C1CCC1` [Cpd 277, 6-(3-cyano-1-cyclobutyl-5-methoxy-1H-pyrrolo[2,3-b]pyridin-2-yl)-4-methyl-N-[(2S)-1,1,1-trifluoropropan-2-yl]pyridine-3-sulfonamide] gave a melting point of 175 to 179 °C. In data set [1], this molecule gave an IC50 of less than 500 nM.

On to `Cc1cc(-c2c(C#N)c3cc(Cl)cnc3n2C2CCCC2)ncc1S(=O)(=O)N[C@@H](C)C(F)(F)F` [Cpd 278, 6-(5-chloro-3-cyano-1-cyclopentyl-1H-pyrrolo[2,3-b]pyridin-2-yl)-4-methyl-N-[(2S)-1,1,1-trifluoropropan-2-yl]pyridine-3-sulfonamide], for which the melting point fell in the range of 190 to 195 °C. The same molecule came in with an IC50 in data set [1] of less than 500 nM.

`CC[C@H](NS(=O)(=O)c1ccc(-c2c(C#N)c3cc(C)cnc3n2C2CCC2)nc1)C(F)(F)F` [Cpd 279, 6-(3-cyano-1-cyclobutyl-5-methyl-1H-pyrrolo[2,3-b]pyridin-2-yl)-N-[(2S)-1,1,1-trifluorobutan-2-yl]pyridine-3-sulfonamide] yielded a melting point of 138 to 144 °C. In data set [1], this molecule displayed an IC50 of less than 500 nM.

As to `N#Cc1c(-c2ccc(S(=O)(=O)NC3CCC3)cn2)n(C2CCC2)c2ncc(Cl)cc12` [Cpd 283, 6-(5-chloro-3-cyano-1-cyclobutyl-1H-pyrrolo[2,3-b]pyridin-2-yl)-N-cyclobutylpyridine-3-sulfonamide], the melting point was 178 to 180 °C. In data set [1], this molecule registered an IC50 of less than 500 nM.

With `C[C@H](NS(=O)(=O)c1cnc(-c2c(C#N)c3cc(Cl)cnc3n2C2CCC2)nc1)C(F)(F)F` [Cpd 285, 2-(5-chloro-3-cyano-1-cyclobutyl-1H-pyrrolo[2,3-b]pyridin-2-yl)-N-[(2S)-1,1,1-trifluoropropan-2-yl]pyrimidine-5-sulfonamide], the melting point was in the range of 205 to 207 °C. The molecule further gave an IC50 in data set [1] of less than 500 nM.

`CC1(NS(=O)(=O)c2cnc(-c3c(C#N)c4cc(Cl)cnc4n3C3CCC3)nc2)CC1` [Cpd 286, 2-(5-chloro-3-cyano-1-cyclobutyl-1H-pyrrolo[2,3-b]pyridin-2-yl)-N-(1-methylcyclopropyl)pyrimidine-5-sulfonamide]: the melting point lay within 237 to 240 °C. Also, in data set [1], the IC50 was less than 500 nM.

Molecule `C[C@H](NS(=O)(=O)c1ccc(-c2c(C#N)c3ncc(Cl)cc3n2C2CCCCC2)cc1)C(F)(F)F` [Cpd 287, 4-(6-chloro-3-cyano-1-cyclohexyl-1H-pyrrolo[3,2-b]pyridin-2-yl)-N-[(2S)-1,1,1-trifluoropropan-2-yl]benzenesulfonamide] returned a melting point of 300 to 305 °C. The molecule further registered an IC50 in data set [1] of 500 to 2000 nM.

For `CC(C)(C)S(=O)(=O)Nc1ccc(-c2c(C#N)c3ncc(Cl)cc3n2C2CCCCC2)cc1` [Cpd 288, N-[4-(6-chloro-3-cyano-1-cyclohexyl-1H-pyrrolo[3,2-b]pyridin-2-yl)phenyl]-2-methylpropane-2-sulfonamide], the melting point lay within 279 to 283 °C. Also, the IC50 in data set [1] lay in the range of 500 to 2000 nM.

As to `Cc1cnc2c(c1)c(C#N)c(-c1cc(C)c(S(=O)(=O)N[C@@H](C)C(F)(F)F)cn1)n2C1CCC1` [Cpd 289, 6-(3-cyano-1-cyclobutyl-5-methyl-1H-pyrrolo[2,3-b]pyridin-2-yl)-4-methyl-N-[(2S)-1,1,1-trifluoropropan-2-yl]pyridine-3-sulfonamide], the melting point fell in the range of 218 to 223 °C. In addition, in data set [1], the concentration for half-maximal inhibition (IC50) is less than 500 nM.

Regarding `Cc1cc(S(=O)(=O)N[C@@H](C)C(F)(F)F)cnc1-c1c(C#N)c2cc(Cl)cnc2n1C1CCCC1` [Cpd 290, 6-(5-chloro-3-cyano-1-cyclopentyl-1H-pyrrolo[2,3-b]pyridin-2-yl)-5-methyl-N-[(2S)-1,1,1-trifluoropropan-2-yl]pyridine-3-sulfonamide], the melting point fell in the range of 240 to 245 °C. The molecule also returned an IC50 in data set [1] of less than 500 nM.

`Cc1cnc2c(c1)c(C#N)c(-c1ncc(S(=O)(=O)N[C@@H](C)C(F)(F)F)cc1C)n2C1CCC1` [Cpd 291, 6-(3-cyano-1-cyclobutyl-5-methyl-1H-pyrrolo[2,3-b]pyridin-2-yl)-5-methyl-N-[(2S)-1,1,1-trifluoropropan-2-yl]pyridine-3-sulfonamide] gave a melting point of 181 to 185 °C. Besides, the IC50 in data set [1] is less than 500 nM.

In the case of `COc1cnc2c(c1)c(C#N)c(-c1ncc(S(=O)(=O)N[C@@H](C)C(F)(F)F)cc1C)n2C1CCC1` [Cpd 292, 6-(3-cyano-1-cyclobutyl-5-methoxy-1H-pyrrolo[2,3-b]pyridin-2-yl)-5-methyl-N-[(2S)-1,1,1-trifluoropropan-2-yl]pyridine-3-sulfonamide], the melting point lay in the range of 180 to 183 °C. In data set [1], the IC50 was less than 500 nM.

Regarding `Cc1cnc2c(c1)c(C#N)c(-c1ccc(S(=O)(=O)NC(C)(C)C)cn1)n2C1CCC1` [Cpd 293, N-tert-butyl-6-(3-cyano-1-cyclobutyl-5-methyl-1H-pyrrolo[2,3-b]pyridin-2-yl)pyridine-3-sulfonamide], the melting point fell in the range of 173 to 175 °C. Besides, the IC50 in data set [1] is less than 500 nM.

Regarding `C[C@H](NS(=O)(=O)c1ccc(-c2c(C#N)c3cc(O)cnc3n2C2CCCC2)nc1)C(F)(F)F` [Cpd 294, 6-(3-cyano-1-cyclopentyl-5-hydroxy-1H-pyrrolo[2,3-b]pyridin-2-yl)-N-[(2S)-1,1,1-trifluoropropan-2-yl]pyridine-3-sulfonamide], the melting point was 221 to 223 °C. Moreover, the 50% inhibitory concentration (IC50) in data set [1] is less than 500 nM.

For `C[C@H](NS(=O)(=O)c1ccc(-c2c(C#N)c3cc(C(F)(F)F)cnc3n2CC2CC2)nc1)C(F)(F)F` [Cpd 295, 6-[3-cyano-1-(cyclopropylmethyl)-5-(trifluoromethyl)-1H-pyrrolo[2,3-b]pyridin-2-yl]-N-[(2S)-1,1,1-trifluoropropan-2-yl]pyridine-3-sulfonamide], the melting point lay in the range of 193 to 195 °C. Also, the half-maximal inhibitory concentration (IC50) in data set [1] is less than 500 nM.

`CC(C)(C)NS(=O)(=O)c1ccc(-c2c(C#N)c3cc(C(F)(F)F)cnc3n2CC2CC2)nc1` [Cpd 296, N-tert-butyl-6-[3-cyano-1-(cyclopropylmethyl)-5-(trifluoromethyl)-1H-pyrrolo[2,3-b]pyridin-2-yl]pyridine-3-sulfonamide] gave a melting point of 179 to 180 °C. In data set [1], this molecule showed an IC50 of less than 500 nM.
